Data from patent US10329336B2, “Antimicrobial kinocidin compositions and methods of use” (LA Biomedical Research Institute at Harbor-UCLA Medical …, priority 2006, dated 2019).
“Also recorded” adds a separate entry of the source.

What was measured:
S. aureus ATCC 27217 = test: Solution-phase microbicidal assay; type: cell-based, Staphylococcus aureus; conditions: for microbicidal activity: solution-phase, pH 5.5 and 7.5, 1 hour
Experimental: (§1) One million CFU of the indicated microorganism per milliliter were incubated with peptide (0.00125-20.0 nmol/ml) in either MES (2.0 mM, pH 5.5) or PIPES (10.0 mM, pH 7.5) for one hour at 37° C. Surviving CFU were enumerated and are described as change in the initial log 10 CFU. ∘, S. aureus ATCC 27217; ●, S. typhimurium strain 5990s; □, C. albicans ATCC 36082. Data are means±SD (minimum n=2).
(§2) Briefly, the antimicrobial assays were performed against a panel of prototype human pathogens as previously detailed (Yoshimura, T., Matsushima, K., Tanaka, S., Robinson, E. A., Appella, E., Oppenheim, J. J. & Leonard, E. J. (1987) Proc Natl Acad Sci USA 84, 9233-7): Staphylococcus aureus (ATCC 27217; Gram-positive bacterium); Salmonella typhimurium (5996s; Gram-negative bacterium); and the fungus Candida albicans (ATCC 36082). Defensin HNP-1 was included in each assay as an internal control, and all assays were conducted a minimum of two independent times. Results of independent assays were analyzed using Wilcoxon Rank Sum analysis with Bonferroni correction for multiple comparisons.
(§3) To characterize IL-8's antimicrobial activity in more detail, a quantitative solution-phase assay was carried out at pH 5.5 and 7.5. Organisms were prepared and adjusted to 10^6 CFU/ml in PIPES or MES buffer as above but lacking agarose, and dispensed (5×10^4 CFU per 50 μl aliquot). Peptide (concentration range, 20-0.00125 nmol/ml) was introduced into the assay medium, and incubated for 1 hour at 37° C. After incubation, media were serially diluted and plated in triplicate for enumeration. […] IL-8 was also fungicidal for C. albicans at pH 7.5, with a 2-log reduction in surviving CFU over 1 hour at a concentration of 2.5 nmol/ml.

[1] = system: Candida albicans (ATCC 36082); test: Solid-phase antimicrobial assay of kinocidins; type: cell-based; conditions: C. albicans, 0.5 nmol/well
Experimental: (§4) Peptides (0.5 nmol) were introduced into wells in agarose plates buffered with MES (2.0 mM, pH 5.5) or PIPES (10.0 mM, pH 7.5). Antimicrobial activity was assessed as the zone of complete (blue) or partial (red) inhibition around the well. Abbreviations are: Native IL-8 (IL-8); IL-8α, (α); IL-8γ, (γ); IL-8α+IL-8γ (α+γ); RANTES, (RAN); GRO-α, (GRO); MCP-1, (MCP); lymphotactin, (LYM); platelet factor-4, (PF-4); and HNP-1, (HNP). Histograms are means±SEM (minimum n=2).
as §2
(§5) For the Solid-Phase Assay, mid-logarithmic phase organisms were prepared, introduced into buffered agarose (PIPES [10 mM, pH 7.5] or MES [2.0 mM, pH 5.5]) to achieve final inocula of 10^6 CFU/ml, and poured into plates. Peptides (0.5 nmol/well [50 nmol/ml]) were added to wells in the seeded matrix, and incubated for 3h at 37° C. Nutrient overlay medium was applied, and assays incubated at 37° C. or 30° C. for bacteria or fungi, respectively. After 24h, zones of inhibition were measured, and results recorded as zones of complete or partial inhibition.

[2] = system: Salmonella typhimurium (5996s); test: Solid-phase antimicrobial assay of kinocidins; type: cell-based; conditions: S. typhimurium (Gram-negative); pH 5.5 or 7.5, not separated; 0.5 nmol/well
Experimental: as §4, §2, §5

[3] = system: Staphylococcus aureus (ATCC 27217); test: Solid-phase antimicrobial assay of kinocidins; type: cell-based; conditions: 0.5 nmol/well
Experimental: as §4, §2, §5

S. typhimurium = test: Solution-phase microbicidal assay; type: cell-based, Salmonella typhimurium; conditions: for microbicidal activity: solution-phase, pH 5.5 and 7.5, 1 hour
Experimental: as §1, §2, §3

C. albicans ATCC 36082 = test: Solution-phase microbicidal assay; type: cell-based, Candida albicans; conditions: C. albicans; for microbicidal (fungicidal) activity: solution-phase, pH 5.5 and 7.5, 1 hour
Experimental: as §1, §2, §3

[4] = system: Staphylococcus aureus (ATCC 27217), Bacillus subtilis (ATCC 6633), Escherichia coli (strain ML-35); test: Solid-phase radial diffusion assay (signature model validation), bacteria panel; type: cell-based; conditions: pH 5.5 or pH 7.5, after 24h
Experimental: (§6) Standard radial diffusion assays were conducted using 10 μg of specified peptide: defensin HNP-1 (HNP); brazzein (BRZ); charybdotoxin (CTX); or metallothionein II (MTL). Recombinant brazzein reflecting the published 3-dimensional structure (1BRZ) as determined by nuclear magnetic resonance spectroscopy was kindly provided by Drs. J. L. Markley and F. M. Assadi-Porter, the University of Wisconsin 25. Charybdotoxin, metallothionein II, and defensin HNP-1 were obtained from commercial sources. Antimicrobial activity was assessed using a well-established solid-phase diffusion method as described by Tang et al., Infect. Immun. 70: 6524-6533 (2002). Assays included well characterized organisms: Staphylococcus aureus (ATCC 27217, Gram-positive coccus); Bacillus subtilis (ATCC 6633, Gram-positive bacillus); Escherichia coli (strain ML-35, Gram-negative bacillus); and Candida albicans (ATCC 36082, fungus). In brief, organisms were cultured to logarithmic phase and inoculated (10^6 colony forming units/ml) into buffered molecular-biology grade agarose at the indicated pH. Peptides resuspended in sterile deionized water were introduced into wells formed in the underlay, and incubated for 3h at 37° C. Nutrient-containing overlay medium was then applied, and assays incubated at 37° C. or 30° C. for bacteria or fungi, respectively. After 24h, zones of complete or partial inhibition were measured. All assays were repeated independently a minimum of two times at pH 5.5 (panels A-D) or pH 7.5 (panels E-H) to assess the influences of pH on peptide antimicrobial activities versus microorganisms. Histograms express mean (±standard deviation) zones of complete (blue) or incomplete (yellow) inhibition of growth. […] Note differences in scale.
(§7) These peptides were tested for antimicrobial activity against a panel of Gram-positive (Staphylococcus aureus. Bacillus subtilis) and Gram-negative (Escherichia coli) bacteria, and the fungus Candida albicans, using a well-established and sensitive in vitro assay [Antimicrobial activity was assessed using a well-established solid-phase diffusion method. Assays included well-characterized organisms: Staphylococcus aureus (ATCC 27217, Gram-positive); Bacillus subtilis (ATCC 6633, Gram-positive); Escherichia coli (strain ML-35, Gram-negative); and Candida albicans (ATCC 36082, fungus). In brief, organisms were cultured to logarithmic phase and inoculated at a density of 10^6 colony forming units/ml in buffered molecular grade agarose at the indicated pH. […] of peptide resuspended in sterile deionized water were introduced into wells formed in the underlay, and incubated for 3h at 37° C. […] After 24h, zones of complete or partial inhibition were measured. […]

[5] = system: Candida albicans (ATCC 36082); test: Solid-phase radial diffusion assay (signature model validation), fungus; type: cell-based; conditions: C. albicans, pH 5.5 or pH 7.5, after 24h
Experimental: as §6, §7

[6] = S. aureus (Gram-positive), pH 5.5 or 7.5, not separated

With “ANTEIIVKLSDGRELCLDP [IL-8γ, synthetic γ-core domain of IL-8]” the microbicidal activity (S. aureus ATCC 27217) was “no measurable activity”, the “antifungal activity (zone of inhibition)” value ([1]; pH 5.5 or 7.5, not separated) was “no detectable antimicrobial efficacy” and the “antimicrobial activity (zone of inhibition)” value [2] was “no detectable antimicrobial efficacy”. For the same molecule, the “antimicrobial activity (zone of inhibition)” value [3, 6] was “no detectable antimicrobial efficacy”, the microbicidal activity (S. typhimurium) was “no measurable activity” and the “microbicidal (fungicidal) activity” value (C. albicans ATCC 36082) was “no measurable activity”.

With “IL-8: recombinant human chemokine interleukin-8, obtained commercially” the “activity in solution phase” value (S. aureus ATCC 27217; pH 7.5) was “lacks activity”, the microbicidal activity (S. aureus ATCC 27217) was “did not exert microbicidal activity” and the “antifungal activity (zone of inhibition)” value ([1]; pH 5.5) was “greater than any other kinocidin”. For the same molecule, the “antifungal activity (zone of inhibition)” value ([1]; pH 5.5 or 7.5, not separated) was “striking antifungal activity”, the “antifungal activity (zone of inhibition)” value ([1]; pH 7.5) was “the only kinocidin with anti-candidal activity” and the “antimicrobial activity (zone of inhibition)” value [2] was “equivalent to lymphotactin, but more efficacious than any other test kinocidin”. The “antimicrobial activity (zone of inhibition)” value ([3]; S. aureus, pH 5.5) was “modest activity”, the “activity in solution phase” value (S. typhimurium; pH 7.5) was “lacks activity” and the microbicidal activity (S. typhimurium) was “did not exert microbicidal activity”. For the same molecule, the “reduction in surviving CFU” value (C. albicans ATCC 36082; pH 7.5, 2.5 nmol/ml, over 1 hour) was 2 log and the “microbicidal (fungicidal) activity” value (C. albicans ATCC 36082) was “highly fungicidal”.

“MCP-1: recombinant human chemokine, obtained commercially” was tested, and the “antifungal activity (zone of inhibition)” value ([1]; pH 5.5 or 7.5, not separated) was “no measurable antifungal activity”, the “antimicrobial activity (zone of inhibition)” value [2] was “significant activity” and the “antimicrobial activity (zone of inhibition)” value [3, 6] was “significant activity”.

“RANTES: recombinant human chemokine, obtained commercially” was tested, and the “antimicrobial activity (zone of inhibition)” value ([3]; S. aureus, pH 7.5) was “more efficacious”.

For “brazzein: recombinant sweetener protein from Pentadiplandra (1BRZ) (QDKCKKVYENYPVSKCQLANQCNYDCKLDKHARSGECFYDEKRNLQCICDYCEY; UniProt P56552 1-54, looked up)”, the “antimicrobial activity (zones of complete or partial inhibition)” value [4] was “exerted direct antimicrobial activity; also recorded: direct antimicrobial activities” and the “antimicrobial activity (zones of complete or partial inhibition)” value [5] was “exerted direct antimicrobial activity; also recorded: direct antimicrobial activities”.

In the case of charybdotoxin, the “antimicrobial activity (zones of complete or partial inhibition)” value [4] is reported as “exerted direct antimicrobial activity; also recorded: direct antimicrobial activities” and the “antimicrobial activity (zones of complete or partial inhibition)” value [5] is reported as “exerted direct antimicrobial activity; also recorded: direct antimicrobial activities”.

“metallothionein II: comparator predicted to lack antimicrobial activity, from commercial sources” was tested, and the “antimicrobial activity (zones of complete or partial inhibition)” value [4] was “failed to exert antimicrobial activity”, the “antimicrobial activity (zones of complete or partial inhibition)” value ([4]; listed as Metallothionein II) was “lacked antimicrobial activity” and the “antimicrobial activity (zones of complete or partial inhibition)” value [5] was “failed to exert antimicrobial activity”. For the same molecule, the “antimicrobial activity (zones of complete or partial inhibition)” value ([5]; listed as Metallothionein II) was “lacked antimicrobial activity”.

B1: Lymphotactin: recombinant human chemokine, obtained commercially (protein, UniProt P47992 22-114, looked up)
Lymphotactin: VGSEVSDKRTCVSLTTQRLPVSRIKTYTITEGSLRAVIFITKRGLKVCADPQATWVRDVVRSMDRKSNTRNNMIQTKPTGTQQSTNTAVTLTG
B1 was tested, and the “antimicrobial activity (zone of inhibition)” value ([3]; S. aureus, pH 7.5) was “more efficacious”.
